Source: patent US11878967B2, “Crystalline forms of 1-(4-{[6-amino-5-(4-phenoxy-phenyl)-pyrimidin-4-ylamino]-methyl}-4-fluoro-piperidin-1-yl)-propenone, salt forms thereof, and processes to obtain” (Merck Patent GmbH, priority 2018, dated 2024)
In brackets after ≈: the same amount, converted by molar mass. Where a name gives a salt, the structure may show the parent alone. Read-outs that look alike come from different tables or passages of the source.

What was measured:
Assay type in all cases: physicochemical
[1] = Mini-dissolution in FaSSIF medium pH 6.5 at 37° C.; settings: for Dissolution levels in FaSSIF pH 6.5: 37° C.; for Dissolution level (2 h) in FaSSIF, factor higher than A1: compared to crystalline neat form A1
Experimental: Approximately 10-20 mg of 1-(4-{[6-Amino-5-(4-phenoxy-phenyl)-pyrimidin-4-ylamino]-methyl}-4-fluoro-piperidin-1-yl)-propenone were weighed into glass vials. 7 mL of FaSSIF medium (pH 6.5, prewarmed to 37° C.) were added and the suspension was shaken at 450 rpm at 37° C. After 30 min, 60 min and 120 min, 1 mL suspension was withdrawn and filtered through a 0.2 μm syringe filter. Clear filtrate was analysed by HPLC after suitable dilution to measure the amount of API dissolved.

[2] = Water Vapour Sorption isotherm (25° C.), DVS system from SMS
Experimental: DSC scan of form A1 was acquired on a Mettler-Toledo DSC 1 with a heating rate of 5 K/min, using nitrogen purge gas at 50 mL/min. TGA scan of form A1 was acquired on a Mettler-Toledo TGA 851 with a heating rate of 5 K/min, using nitrogen purge gas at 50 mL/min. […] Eur. Criteria (section 5.11.). Water Vapour Sorption isotherm was acquired on a DVS-Intrinsic system from SMS. […] Dissolution level of form A1 in Fasted-State Simulated Intestinal Fluid [FaSSIF, pH 6.5] at 37° C. was determined to be approx. 17 μg/mL after 2 h (see example 7). […]
All forms were characterized according to standard methods which are found in e.g. Rolf Hilfiker, ‘Polymorphism in the Pharmaceutical Industry’, Wiley-VCH. Weinheim 2006 (Chapter 6: X-Ray Diffraction, Chapter 6: Vibrational Spectroscopy, Chapter 3: Thermal Analysis, Chapter 9: Water Vapour Sorption, and references therein); and H. G. Brittain, ‘Polymorphism in Pharmaceutical Solids, Vol. 95, Marcel Dekker Inc., New York 1999 (Chapter 6 and references therein).

[3] = Thermodynamic solubility (24 h) at 37° C. of free base forms; settings: for solubility thermodynamic at 24 h: 37 °C, thermodynamic from solid
Experimental: Approximately 10-20 mg of 1-(4-{[6-Amino-5-(4-phenoxy-phenyl)-pyrimidin-4-ylamino]-methyl}-4-fluoro-piperidin-1-yl)-propenone were weighed into a 4 mL glass vial. 1 mL of FaSSIF medium (pH 6.5) or USP Phosphate buffer pH 7.4 was added and the suspension was shaken for 24 h at 450 rpm at 37° C. After 1 h, 6 h and after 24 h the vials were checked for presence of undissolved compound and the pH was measured. If necessary, the pH was adjusted after 1 h and 6 h. The solid liquid separation was carried out using 1 mL syringe and 0.2 μm syringe filter. Clear filtrate was analysed by HPLC after suitable dilution to measure the amount of API dissolved.

[4] = relative humidity range 0-80% rh
[5] = relative humidity range 90-98% rh

For `C=CC(=O)N1CCC(F)(CNc2ncnc(N)c2-c2ccc(Oc3ccccc3)cc2)CC1` [HBr-NF1, 1-(4-{[6-Amino-5-(4-phenoxy-phenyl)-pyrimidin-4-ylamino]-methyl}-4-fluoro-piperidin-1-yl)-propenone], the “Dissolution levels in FaSSIF pH 6.5” value ([1]; 30 min) was 23 μg/mL, the “Dissolution levels in FaSSIF pH 6.5” value ([1]; 60 min) was 27 μg/mL and the “Dissolution level (2 h) in FaSSIF, factor higher than A1” value (shortened to “Dissolution level (2 h) in FaSSIF”) [1] was ~3. For the same compound, the “Hygroscopicity classification acc. to Ph. Eur. criteria (section 5.11.)” value [2] was “slightly hygroscopic”, the Water uptake levels [2, 4] was ≤ 1 % m/m and the Water uptake levels [2, 5] was ≤ 5 % m/m.
In the case of `C=CC(=O)N1CCC(F)(CNc2ncnc(N)c2-c2ccc(Oc3ccccc3)cc2)CC1` [Mesylate-NF1, 1-(4-{[6-Amino-5-(4-phenoxy-phenyl)-pyrimidin-4-ylamino]-methyl}-4-fluoro-piperidin-1-yl)-propenone], the “Hygroscopicity classification acc. to Ph. Eur. criteria (section 5.11.)” value [2] is reported as “slightly hygroscopic”, the Water uptake levels [2, 4] is reported as ≤ 1 % m/m and the Water uptake levels [2, 5] is reported as ≤ 5 % m/m.
In the case of `C=CC(=O)N1CCC(F)(CNc2ncnc(N)c2-c2ccc(Oc3ccccc3)cc2)CC1` [HCl-NF1, 1-(4-{[6-Amino-5-(4-phenoxy-phenyl)-pyrimidin-4-ylamino]-methyl}-4-fluoro-piperidin-1-yl)-propenone], the “Dissolution levels in FaSSIF pH 6.5” value ([1]; 30 min) is reported as 55 μg/mL, the “Dissolution levels in FaSSIF pH 6.5” value ([1]; 60 min) is reported as 43 μg/mL and the “Dissolution level (2 h) in FaSSIF” value [1] is reported as ~4. For the same compound, the “Hygroscopicity classification acc. to Ph. Eur. criteria (section 5.11.)” value [2] was “slightly hygroscopic”, the Water uptake levels [2, 4] was ≤ 1 % m/m and the Water uptake levels [2, 5] was ≤ 5 % m/m.
For `C=CC(=O)N1CCC(F)(CNc2ncnc(N)c2-c2ccc(Oc3ccccc3)cc2)CC1` [Fumarate-NF1, 1-(4-{[6-Amino-5-(4-phenoxy-phenyl)-pyrimidin-4-ylamino]-methyl}-4-fluoro-piperidin-1-yl)-propenone], the “Dissolution levels in FaSSIF pH 6.5” value ([1]; 30 min) was 14 μg/mL, the “Dissolution levels in FaSSIF pH 6.5” value ([1]; 60 min) was 18 μg/mL and the “Dissolution level (2 h) in FaSSIF” value ([1]; listed as Fumarate salt form NF1) was ~2. For the same compound, the “Hygroscopicity classification acc. to Ph. Eur. criteria (section 5.11.)” value [2] was “slightly hygroscopic”, the Water uptake levels [2, 4] was ≤ 1 % m/m and the Water uptake levels [2, 5] was ≥ 5 % m/m.
With `C=CC(=O)N1CCC(F)(CNc2ncnc(N)c2-c2ccc(Oc3ccccc3)cc2)CC1` [Free base form A1, 1-(4-{[6-Amino-5-(4-phenoxy-phenyl)-pyrimidin-4-ylamino]-methyl}-4-fluoro-piperidin-1-yl)-propenone] the “Dissolution levels in FaSSIF pH 6.5” value ([1]; 30 min) was 16 μg/mL, the “Dissolution levels in FaSSIF pH 6.5” value ([1]; 60 min) was 17 μg/mL and the “Dissolution levels in FaSSIF pH 6.5” value ([1]; 120 min (2 h)) was 17 μg/mL. For the same compound, the “Dissolution levels in FaSSIF pH 6.5” value ([1]; 120 min (2 h), listed as form A1) was “approx. 17 μg/mL”, the “Hygroscopicity classification acc. to Ph. Eur. criteria (section 5.11.)” value [2] was “slightly hygroscopic” and the Water uptake levels [2, 4] was ≤ 1 % m/m. The Water uptake levels [2, 5] was ≤ 2 % m/m, the solubility thermodynamic at 24 h ([3]; FaSSIF (Fasted-State Simulated Intestinal Fluid), pH 6.5, fassif, Fasted-State Simulated Intestinal Fluid pH 6.5, read-out: Thermodynamic solubility FaSSIF pH 6.5) was ~17 µg/mL (≈ 38 µM) and the solubility thermodynamic at 24 h ([3]; USP Phosphate buffer, pH 7.4, aqueous buffer, USP Phosphate buffer pH 7.4, read-out: Thermodynamic solubility PBS buffer 7.4) was ~1 µg/mL (≈ 2.23 µM).
For `C=CC(=O)N1CCC(F)(CNc2ncnc(N)c2-c2ccc(Oc3ccccc3)cc2)CC1` [Free base form A2, 1-(4-{[6-Amino-5-(4-phenoxy-phenyl)-pyrimidin-4-ylamino]-methyl}-4-fluoro-piperidin-1-yl)-propenone], the “Dissolution levels in FaSSIF pH 6.5” value ([1]; 30 min) was 7 μg/mL, the “Dissolution levels in FaSSIF pH 6.5” value ([1]; 60 min) was 8 μg/mL and the “Dissolution levels in FaSSIF pH 6.5” value ([1]; 120 min (2 h)) was 8 μg/mL. The “Dissolution levels in FaSSIF pH 6.5” value ([1]; 120 min (2 h), listed as form A2) was “approx. 8 μg/mL”, the “Hygroscopicity classification acc. to Ph. Eur. criteria (section 5.11.)” value [2] was “slightly hygroscopic” and the Water uptake levels [2, 4] was ≤ 1 % m/m. For the same compound, the Water uptake levels [2, 5] was ≤ 2 % m/m, the “Thermodynamic solubility FaSSIF pH 6.5” value ([3]; Fasted-State Simulated Intestinal Fluid pH 6.5) was 10 μg/mL and the “Thermodynamic solubility FaSSIF pH 6.5” value ([3]; Fasted-State Simulated Intestinal Fluid pH 6.5, listed as form A2) was “approx. 10 μg/mL”. The “Thermodynamic solubility PBS buffer 7.4” value ([3]; USP Phosphate buffer pH 7.4) was 2 µg/mL and the “Thermodynamic solubility PBS buffer 7.4” value ([3]; USP Phosphate buffer pH 7.4, listed as form A2) was “approx. 2 μg/mL”.
For `C=CC(=O)N1CCC(F)(CNc2ncnc(N)c2-c2ccc(Oc3ccccc3)cc2)CC1` [Oxalate-NF1, 1-(4-{[6-Amino-5-(4-phenoxy-phenyl)-pyrimidin-4-ylamino]-methyl}-4-fluoro-piperidin-1-yl)-propenone], the “Dissolution levels in FaSSIF pH 6.5” value ([1]; 30 min) was 22 μg/mL, the “Dissolution levels in FaSSIF pH 6.5” value ([1]; 60 min) was 39 μg/mL and the “Dissolution level (2 h) in FaSSIF” value ([1]; listed as Oxalate salt form NF1) was ~4. The “Hygroscopicity classification acc. to Ph. Eur. criteria (section 5.11.)” value [2] was “slightly hygroscopic”, the Water uptake levels [2, 4] was ≤ 1 % m/m and the Water uptake levels [2, 5] was ≤ 5 % m/m.
With `C=CC(=O)N1CCC(F)(CNc2ncnc(N)c2-c2ccc(Oc3ccccc3)cc2)CC1` [HBr-NF2, 1-(4-{[6-Amino-5-(4-phenoxy-phenyl)-pyrimidin-4-ylamino]-methyl}-4-fluoro-piperidin-1-yl)-propenone] the “Hygroscopicity classification acc. to Ph. Eur. criteria (section 5.11.)” value [2] was “slightly hygroscopic”, the Water uptake levels [2, 4] was ≤ 1 % m/m and the Water uptake levels [2, 5] was ≥ 5 % m/m.
For `C=CC(=O)N1CCC(F)(CNc2ncnc(N)c2-c2ccc(Oc3ccccc3)cc2)CC1` [Maleate-NF1, 1-(4-{[6-Amino-5-(4-phenoxy-phenyl)-pyrimidin-4-ylamino]-methyl}-4-fluoro-piperidin-1-yl)-propenone], the “Hygroscopicity classification acc. to Ph. Eur. criteria (section 5.11.)” value [2] was “slightly hygroscopic”, the Water uptake levels [2, 4] was ≤ 1 % m/m and the Water uptake levels [2, 5] was ≤ 5 % m/m.
